This is an account of results in patent US9878986B2, “Compounds for selective histone deacetylase inhibitors, and pharmaceutical composition comprising the same” (CHONG KUN DANG PHARMACEUTICAL CORP., priority 2013, dated 2018).

One assay deals with T1, HDAC 6 (Homo sapiens, UniProt Q9UBN7).
T1 sequence (Q9UBN7 1-1215): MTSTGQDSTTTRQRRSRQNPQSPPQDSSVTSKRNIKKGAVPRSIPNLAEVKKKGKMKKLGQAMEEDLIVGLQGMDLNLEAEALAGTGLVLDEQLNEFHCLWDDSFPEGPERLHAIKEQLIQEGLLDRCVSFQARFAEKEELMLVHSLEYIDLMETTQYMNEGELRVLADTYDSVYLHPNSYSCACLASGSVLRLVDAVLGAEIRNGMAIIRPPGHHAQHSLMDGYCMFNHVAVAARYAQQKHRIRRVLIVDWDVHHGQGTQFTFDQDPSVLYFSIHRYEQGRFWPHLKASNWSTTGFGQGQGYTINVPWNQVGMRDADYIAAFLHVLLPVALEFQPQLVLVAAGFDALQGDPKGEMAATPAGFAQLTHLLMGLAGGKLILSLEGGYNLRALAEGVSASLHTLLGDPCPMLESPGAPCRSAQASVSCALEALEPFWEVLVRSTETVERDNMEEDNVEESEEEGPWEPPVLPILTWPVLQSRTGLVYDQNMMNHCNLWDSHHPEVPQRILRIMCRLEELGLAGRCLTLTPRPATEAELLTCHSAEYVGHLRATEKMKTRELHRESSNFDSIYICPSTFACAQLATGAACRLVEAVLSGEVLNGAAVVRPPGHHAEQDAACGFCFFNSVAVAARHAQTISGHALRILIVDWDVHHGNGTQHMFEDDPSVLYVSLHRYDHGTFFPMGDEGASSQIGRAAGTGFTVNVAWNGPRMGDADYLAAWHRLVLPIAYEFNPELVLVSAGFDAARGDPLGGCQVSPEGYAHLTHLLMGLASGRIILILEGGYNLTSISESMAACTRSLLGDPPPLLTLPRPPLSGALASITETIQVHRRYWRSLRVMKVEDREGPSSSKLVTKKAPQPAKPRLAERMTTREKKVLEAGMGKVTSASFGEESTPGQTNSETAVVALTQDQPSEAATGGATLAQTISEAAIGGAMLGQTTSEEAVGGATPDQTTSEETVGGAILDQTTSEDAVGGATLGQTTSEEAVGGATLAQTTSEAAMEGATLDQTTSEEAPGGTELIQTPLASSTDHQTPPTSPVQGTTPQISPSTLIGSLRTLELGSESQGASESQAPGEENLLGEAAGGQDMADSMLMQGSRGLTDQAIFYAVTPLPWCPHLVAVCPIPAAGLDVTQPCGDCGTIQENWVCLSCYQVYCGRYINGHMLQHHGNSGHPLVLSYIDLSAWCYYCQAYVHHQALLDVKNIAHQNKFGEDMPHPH
Briefly: Test of HDAC activities, HDAC6 (fluorimetric). On the set-up: purchased Calbiochem 382180. It counts as biochemical. The conditions noted are these: samples at 0.1, 1, 10, 100, 1000 nM; 37° C. 60 minutes; fluorescence Ex 390, Em 460; read-out: HDAC inhibitory activities, HDAC6. Here is the method: (§1) The HDAC inhibitory activities of test materials were measured using the HDAC1 Fluorimetric Drug Discovery Assay Kit (Enzolifesciences: BML-AK511) and HDAC6 human recombinant (Calbiochem: 382180). In the HDAC1 assay, the samples were treated with concentrations of 100, 1000, and 10000 nM, and in the HDAC6 assay, the samples were treated with concentrations of 0.1, 1, 10, 100, and 1000 nM. After the treatment of the samples, the samples were reacted at 37° C. for 60 minutes, treated with a developer, and then reacted at 37° C. for 30 minutes. Then, the fluorescence intensity (Ex 390, Em 460) was measured using the FlexStation 3 (Molecular device).

The next assay concerns the target HDAC1 (Homo sapiens, UniProt Q13547). Briefly: Test of HDAC activities, HDAC1 Fluorimetric Drug Discovery Assay Kit. It counts as biochemical. On the set-up: purchased Enzolifesciences BML-AK511. The conditions noted are these: samples at 100, 1000, 10000 nM; 37° C. 60 minutes; fluorescence Ex 390, Em 460; read-out: HDAC inhibitory activities, HDAC1. As for the experimental part: as §1

Molecules are shown by their SMILES.

Chain of HDAC1 (Q13547 whole entry): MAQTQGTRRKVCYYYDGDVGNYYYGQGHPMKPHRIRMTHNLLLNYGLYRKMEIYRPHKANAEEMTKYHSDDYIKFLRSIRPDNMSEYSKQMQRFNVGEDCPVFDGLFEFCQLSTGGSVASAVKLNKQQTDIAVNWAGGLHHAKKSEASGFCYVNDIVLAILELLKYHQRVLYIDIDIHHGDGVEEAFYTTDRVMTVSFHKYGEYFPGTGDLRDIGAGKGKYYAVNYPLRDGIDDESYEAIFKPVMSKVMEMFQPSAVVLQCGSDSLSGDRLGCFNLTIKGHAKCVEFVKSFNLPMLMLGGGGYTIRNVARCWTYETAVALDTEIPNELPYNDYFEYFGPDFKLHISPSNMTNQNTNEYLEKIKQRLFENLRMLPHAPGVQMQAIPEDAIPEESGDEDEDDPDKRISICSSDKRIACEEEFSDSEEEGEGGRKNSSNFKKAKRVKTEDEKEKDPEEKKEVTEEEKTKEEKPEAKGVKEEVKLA

Consider `O=C(NO)c1ccc(CN(C(=O)N2CCOCC2)c2ccc(Br)cc2)cc1` [Compound 372, N-(4-bromophenyl)-N-(4-(hydroxycarbamoyl)benzyl)morpholine-4-carboxamide], for which the IC50 on HDAC 6 was 1 nM; on HDAC1, 212 nM.

In the case of `O=C(NO)c1ccc(CN(C(=O)N2CCOCC2)c2ccc(C(F)(F)F)cc2)cc1` [Compound 385, N-(4-(hydroxycarbamoyl)benzyl)-N-(4-(trifluoromethyl)phenyl)morpholine-4-carboxamide], the values for the IC50 on HDAC 6 and on HDAC1 were 5 nM and 976 nM, respectively.

In the case of `CC1CN(C(=O)N(Cc2ccc(C(=O)NO)cc2)c2cccc(C(F)(F)F)c2)CC(C)O1` (stereo not shown) [Compound 386, N-(4-(hydroxycarbamoyl)benzyl)-2,6-dimethyl-N-(3-(trifluoromethyl)phenyl)morpholine-4-carboxamide], the IC50 was determined as 6 nM on HDAC 6 and 4040 nM on HDAC1.

Turning to `O=C(NO)c1ccc(CN(C(=O)N2CCCCC2)c2ccc(Cl)c(C(F)(F)F)c2)cc1` [Compound 389, N-(4-chloro-3-(trifluoromethyl)phenyl)-N-(4-(hydroxycarbamoyl)benzyl)piperidine-1-carboxamide], the IC50 on HDAC 6 came to 37 nM; at HDAC1, 7830 nM.

Consider `CC1CCN(C(=O)N(Cc2ccc(C(=O)NO)cc2)c2ccc(Cl)c(C(F)(F)F)c2)CC1` [Compound 390, N-(4-chloro-3-(trifluoromethyl)phenyl)-N-(4-(hydroxycarbamoyl)benzyl)-4-methylpiperidine-1-carboxamide], for which the IC50 on HDAC 6 came to 20 nM; at HDAC1, 6220 nM.

`O=C(NO)c1ccc(CN(C(=O)N2CCOCC2)c2ccc(Cl)c(C(F)(F)F)c2)cc1` [Compound 391, N-(4-chloro-3-(trifluoromethyl)phenyl)-N-(4-(hydroxycarbamoyl)benzyl)morpholine-4-carboxamide]: the IC50 was 3 nM on HDAC 6 and 2120 nM on HDAC1.

Regarding `CC1CN(C(=O)N(Cc2ccc(C(=O)NO)cc2)c2ccc(Cl)c(C(F)(F)F)c2)CC(C)O1` (stereo not shown) [Compound 392, N-(4-chloro-3-(trifluoromethyl)phenyl)-N-(4-(hydroxycarbamoyl)benzyl)-2,6-dimethylmorpholine-4-carboxamide], the IC50 turned out to be 5 nM at HDAC 6 and 2870 nM at HDAC1.

For `CN1CCN(C(=O)N(Cc2ccc(C(=O)NO)cc2)c2ccc(Cl)c(C(F)(F)F)c2)CC1` [Compound 393, N-(4-chloro-3-(trifluoromethyl)phenyl)-N-(4-(hydroxycarbamoyl)benzyl)-4-methylpiperazine-1-carboxamide], the IC50 on HDAC 6 amounted to 5 nM; on HDAC1, 1110 nM.

Take `CCN1CCN(C(=O)N(Cc2ccc(C(=O)NO)cc2)c2ccc(Cl)c(C(F)(F)F)c2)CC1` [Compound 394, N-(4-chloro-3-(trifluoromethyl)phenyl)-4-ethyl-N-(4-(hydroxycarbamoyl)benzyl)piperazine-1-carboxamide]: the IC50 on HDAC 6 came to 11 nM; on HDAC1 it was 2590 nM.

With `O=C(NO)c1ccc(CN(C(=O)N2CCOCC2)c2cccc(-c3cc(F)cc(F)c3)c2)cc1` [Compound 395, N-(3′,5′-difluorobiphenyl-3-yl)-N-(4-(hydroxycarbamoyl)benzyl)morpholine-4-carboxamide], the values for the IC50 on HDAC 6 and at HDAC1 were 5 nM and 489 nM, respectively.

Turning to `CN(C)c1ccc(-c2cccc(N(Cc3ccc(C(=O)NO)cc3)C(=O)N3CCOCC3)c2)cn1` [Compound 396, N-(3-(6-(dimethylamino)pyridin-3-yl)phenyl)-N-(4-(hydroxycarbamoyl)benzyl)morpholine-4-carboxamide], the IC50 was determined as 5 nM on HDAC 6 and 257 nM at HDAC1.

With `O=C(NO)c1ccc(CN(C(=O)N2CCOCC2)c2cccc(-c3cncnc3)c2)cc1` [Compound 397, N-(4-(hydroxycarbamoyl)benzyl)-N-(3-(pyrimidin-5-yl)phenyl)morpholine-4-carboxamide], the IC50 on HDAC 6 came to 14 nM; on HDAC1, 1000 nM.

In the case of `O=C(NO)c1ccc(CN(C(=O)N2CCOCC2)c2cccc(-c3cc(C(F)(F)F)cc(C(F)(F)F)c3)c2)cc1` [Compound 398, N-(3′,5′-bis(trifluoromethyl)biphenyl-3-yl)-N-(4-(hydroxycarbamoyl)benzyl)morpholine-4-carboxamide], the IC50 at HDAC 6 came out at 32 nM; at HDAC1, 4450 nM.

In the case of `O=C(NO)c1ccc(CN(C(=O)N2CCOCC2)c2cccc(-c3ccc4c(c3)OCCO4)c2)cc1` [Compound 399, N-(3-(2,3-dihydrobenzo[b][1,4]dioxin-6-yl)phenyl)-N-(4-(hydroxycarbamoyl)benzyl)morpholine-4-carboxamide], the results for the IC50 at HDAC 6 and on HDAC1 were 7 nM and 302 nM, respectively.

`COc1cc(-c2cccc(N(Cc3ccc(C(=O)NO)cc3)C(=O)N3CCOCC3)c2)cc(OC)c1OC` [Compound 400, N-(4-(hydroxycarbamoyl)benzyl)-N-(3′,4′,5′-trimethoxybiphenyl-3-yl)morpholine-4-carboxamide]: the IC50 on HDAC 6 was determined as 8 nM; at HDAC1 it was 770 nM.

For `Cc1cccc(C)c1-c1cccc(N(Cc2ccc(C(=O)NO)cc2)C(=O)N2CCOCC2)c1` [Compound 401, N-(2′,6′-dimethylbiphenyl-3-yl)-N-(4-(hydroxycarbamoyl)benzyl)morpholine-4-carboxamide], the IC50 on HDAC 6 was determined as 8 nM; at HDAC1, 1790 nM.

For `O=C(NO)c1ccc(CN(C(=O)N2CCOCC2)c2cccc(-c3ccoc3)c2)cc1` [Compound 402, N-(3-(furan-3-yl)phenyl)-N-(4-(hydroxycarbamoyl)benzyl)morpholine-4-carboxamide], the IC50 came out at 3 nM on HDAC 6 and 170 nM on HDAC1.

For the molecule `O=C(NO)c1ccc(CN(C(=O)N2CCOCC2)c2cccc(C3=CCOCC3)c2)cc1` [Compound 403, N-(3-(3,6-dihydro-2H-pyran-4-yl)phenyl)-N-(4-(hydroxycarbamoyl)benzyl)morpholine-4-carboxamide], the IC50 is 1 nM at HDAC 6 and 453 nM at HDAC1.

Take `CN1CC=C(c2cccc(N(Cc3ccc(C(=O)NO)cc3)C(=O)N3CCOCC3)c2)CC1` [Compound 404, N-(4-(hydroxycarbamoyl)benzyl)-N-(3-(1-methyl-1,2,3,6-tetrahydropyridin-4-yl)phenyl) morpholine-4-carboxamide]: the IC50 is 16 nM on HDAC 6 and 3500 nM on HDAC1.

For the molecule `CC(C)(C)OC(=O)N1CC=C(c2cccc(N(Cc3ccc(C(=O)NO)cc3)C(=O)N3CCOCC3)c2)CC1` [Compound 405, tert-butyl 4-(3-(N-(4-(hydroxycarbamoyl)benzyl)morpholine-4-carboxamido)phenyl)-5,6-dihydropyridine-1(2H)-carboxylate], the IC50 on HDAC 6 turned out to be 3 nM; at HDAC1 it was 1450 nM.

For `O=C(NO)c1ccc(CN(C(=O)N2CCOCC2)c2ccc(F)cc2F)cc1` [Compound 413, N-(2,4-difluorophenyl)-N-(4-(hydroxycarbamoyl)benzyl)morpholine-4-carboxamide], the IC50 at HDAC 6 came to 0.4 nM; at HDAC1, 860 nM.

Consider `O=C(NO)c1ccc(CN(C(=O)N2CCCCC2)c2ccc(F)cc2F)cc1` [Compound 414, N-(2,4-difluorophenyl)-N-(4-(hydroxycarbamoyl)benzyl)piperidine-1-carboxamide], for which the IC50 on HDAC 6 is 1 nM; on HDAC1, 1170 nM.

`CC1CN(C(=O)N(Cc2ccc(C(=O)NO)cc2)c2ccc(F)cc2F)CC(C)O1` (stereo not shown) [Compound 415, N-(2,4-difluorophenyl)-N-(4-(hydroxycarbamoyl)benzyl)-2,6-dimethylmorpholine-4-carboxamide]: the values for the IC50 on HDAC 6 and on HDAC1 were 5 nM and 1220 nM, respectively.
